Source: US9365574B2, “Soluble guanylate cyclase activators” (Merck Sharp & Dohme Corp., priority 2010, dated 2016)

Test system: Spontaneously hypertensive rats (SHR)
Test: Acute Efficacy in Spontaneously Hypertensive Rats (SHR), telemetry blood pressure
Type: in vivo, rat
In short: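 Male SHR with aortic telemetry catheters, 14-day recovery, conscious and freely moving; single oral gavage in 10% transcutol/20% Cremophor/70% water. BP sampled 30 s every 10 min, hourly averages minus prior-day vehicle baseline; value is maximum peak SBP decrease at stated mg/kg PO dose.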

Structure (SMILES) | Maximum peak decrease of systolic blood pressure (SBP) in SHR, Category (single oral dose 0.3 mpk P.O.) | Maximum peak decrease of systolic blood pressure (SBP) in SHR, Category (single oral dose 1 mpk P.O.) | also measured
CC(C)c1nnc(C2(C)C(=O)Nc3nc(-c4nn(CCC(F)(F)C(F)(F)F)c5ncccc45)nc(N)c32)o1 (centres unmarked) [Example 213, 4-amino-5-methyl-5-[5-(1-methylethyl)-1,3,4-oxadiazol-2-yl]-2-[1-(3,3,4,4,4-pentafluorobutyl)-1H-pyrazolo[3,4-b]pyridin-3-yl]-5,7-dihydro-6H-pyrrolo[2,3-d]pyrimidin-6-one] | C (Category C=SBP in SHRs>40 mmHg) | – | –
CC1(c2nc(C(F)(F)F)no2)C(=O)Nc2nc(-c3nc(CCCC(F)(F)F)n4cc(F)ccc34)nc(N)c21 (centres unmarked) [Example 248, 4-amino-2-[6-fluoro-3-(4,4,4-trifluorobutyl)imidazo[1,5-a]pyridin-1-yl]-5-methyl-5-[3-(trifluoromethyl)-1,2,4-oxadiazol-5-yl]-5,7-dihydro-6H-pyrrolo[2,3-d]pyrimidin-6-one] | B (Category B=SBP in SHRs 25-40 mmHg) | – | –
CC1(C(=O)NC2CC2)C(=O)Nc2nc(-c3nn(CCC(F)(F)C(F)F)c4ncccc34)nc(N)c21 (centres unmarked) [Example 237, 4-amino-N-cyclopropyl-5-methyl-6-oxo-2-[1-(3,3,4,4-tetrafluorobutyl)-1H-pyrazolo[3,4-b]pyridin-3-yl]-6,7-dihydro-5H-pyrrolo[2,3-d]pyrimidine-5-carboxamide] | – | – | Maximum peak decrease of systolic blood pressure (SBP) in SHR, Category (single oral dose 0.1 mpk P.O.): B (Category B=SBP in SHRs 25-40 mmHg)
CC1(C(=O)Nc2cccnc2)C(=O)Nc2nc(-c3nn(CCC(F)(F)C(F)(F)F)c4ncccc34)nc(N)c21 (centres unmarked) [Example 234, 4-amino-5-methyl-6-oxo-2-[1-(3,3,4,4,4-pentafluorobutyl)-1H-pyrazolo[3,4-b]pyridin-3-yl]-N-pyridin-3-yl-6,7-dihydro-5H-pyrrolo[2,3-d]pyrimidine-5-carboxamide] | C (Category C=SBP in SHRs>40 mmHg) | – | –
Nc1nc(-c2nn(CCC(F)(F)C(F)(F)F)c3ncccc23)nc2c1C(C(=O)NC1CC1)(C1CCCC1)C(=O)N2 (centres unmarked) [Example 243, 4-amino-5-cyclopentyl-N-cyclopropyl-6-oxo-2-[1-(3,3,4,4,4-pentafluorobutyl)-1H-pyrazolo[3,4-b]pyridin-3-yl]-6,7-dihydro-5H-pyrrolo[2,3-d]pyrimidine-5-carboxamide] | – | B (Category B=SBP in SHRs 25-40 mmHg) | –
CC1(C(=O)NC2CC2)C(=O)Nc2nc(-c3nn(CCC(F)(F)C(F)(F)F)c4ncccc34)nc(N)c21 (centres unmarked) [Example 164, 4-Amino-N-Cyclopropyl-5-Methyl-6-Oxo-2-[1-(3,3,4,4,4-Pentafluorobutyl)-1H-Pyrazolo[3,4-B]Pyridin-3-yl]-6,7-Dihydro-5H-Pyrrolo[2,3-D]Pyrimidine-5-Carboxamide] | C (Category C=SBP in SHRs>40 mmHg) | – | –
CC1(C(=O)NC2CC2)C(=O)Nc2nc(-c3nn(CCCC(F)(F)F)c4ncccc34)nc(N)c21 (centres unmarked) [Example 222, 4-amino-N-cyclopropyl-5-methyl-6-oxo-2-[1-(4,4,4-trifluorobutyl)-1H-pyrazolo[3,4-b]pyridin-3-yl]-6,7-dihydro-5H-pyrrolo[2,3-d]pyrimidine-5-carboxamide] | C (Category C=SBP in SHRs>40 mmHg) | – | –
CC1(C(=O)NC2COC2)C(=O)Nc2nc(-c3nn(CCC(F)(F)C(F)(F)F)c4ncccc34)nc(N)c21 (centres unmarked) [Example 231, 4-amino-5-methyl-N-oxetan-3-yl-6-oxo-2-[1-(3,3,4,4,4-pentafluorobutyl)-1H-pyrazolo[3,4-b]pyridin-3-yl]-6,7-dihydro-5H-pyrrolo[2,3-d]pyrimidine-5-carboxamide] | C (Category C=SBP in SHRs>40 mmHg) | – | –
CC1(C(N)=O)C(=O)Nc2nc(-c3nc(CCC(F)(F)C(F)(F)F)n4ncccc34)nc(N)c21 (centres unmarked) [Example 254, 4-amino-5-methyl-6-oxo-2-[7-(3,3,4,4,4-pentafluorobutyl)imidazo[1,5-b]pyridazin-5-yl]-6,7-dihydro-5H-pyrrolo[2,3-d]pyrimidine-5-carboxamide] | – | B (Category B=SBP in SHRs 25-40 mmHg) | –
CC1(C(=O)NC2CC2)C(=O)Nc2nc(-c3nc(CCC(F)(F)C(F)(F)F)n4cc(Cl)ccc34)nc(N)c21 (centres unmarked) [Example 250, 4-amino-2-[6-chloro-3-(3,3,4,4,4-pentafluorobutyl)imidazo[1,5-a]pyridin-1-yl]-H-cyclopropyl-5-methyl-6-oxo-6,7-dihydro-5H-pyrrolo[2,3-d]pyrimidine-5-carboxamide] | – | C (Category C=SBP in SHRs>40 mmHg) | –
CC1(C(=O)Nc2cccnc2)C(=O)Nc2nc(-c3nn(CCC(F)(F)F)c4ncccc34)nc(N)c21 (centres unmarked) [Example 182, 4-Amino-5-Methyl-6-Oxo-N-(Pyridin-3-yl)-2-[1-(3,3,3-Trifluoropropyl)-1H-Pyrazolo[3,4-B]Pyridin-3-yl]-6,7-Dihydro-5H-Pyrrolo[2,3-D]Pyrimidine-5-Carboxamide] | – | B (Category B=SBP in SHRs 25-40 mmHg) | Maximum SBP reduction (dose 1.0 mpk): 46 ± 11 mmHg
CC1(C(=O)Nc2ccccc2)C(=O)Nc2nc(-c3nn(CCC(F)(F)C(F)(F)F)c4cc(Cl)ccc34)nc(N)c21 (centres unmarked) [Example 165, 4-Amino-2-[6-Chloro-1-(3,3,4,4,4-Pentafluorobutyl)-1H-Indazol-3-yl]-5-Methyl-6-Oxo-N-Phenyl-6,7-Dihydro-5H-Pyrrolo[2,3-D]Pyrimidine-5-Carboxamide] | B (Category B=SBP in SHRs 25-40 mmHg) | – | –
COc1ccc2c(-c3nc(N)c4c(n3)NC(=O)C4(C)C(N)=O)nn(CCC(F)(F)C(F)(F)F)c2n1 (centres unmarked) [Example 220, 4-amino-2-[6-methoxy-1-(3,3,4,4,4-pentafluorobutyl)-1H-pyrazolo[3,4-b]pyridin-3-yl]-5-methyl-6-oxo-6,7-dihydro-5H-pyrrolo[2,3-d]pyrimidine-5-carboxamide] | – | B (Category B=SBP in SHRs 25-40 mmHg) | –
CC1(C(N)=O)C(=O)Nc2nc(-c3nn(CCC(F)(F)C(F)(F)F)c4ccccc34)nc(N)c21 (centres unmarked) [Example 193, 4-amino-5-methyl-6-oxo-2-[1-(3,3,4,4,4-pentafluorobutyl)-1H-indazol-3-yl]-6,7-dihydro-5H-pyrrolo[2,3-d]pyrimidine-5-carboxamide] | C (Category C=SBP in SHRs>40 mmHg) | – | –
CC1(c2nc(C(F)(F)F)no2)C(=O)Nc2nc(-c3nn(CCC(F)(F)C(F)(F)F)c4ncccc34)nc(N)c21 (centres unmarked) [Example 207, 4-amino-5-methyl-2-[1-(3,3,4,4,4-pentafluorobutyl)-1H-pyrazolo[3,4-b]pyridin-3-yl]-5-[3-(trifluoromethyl)-1,2,4-oxadiazol-5-yl]-5,7-dihydro-6H-pyrrolo[2,3-d]pyrimidin-6-one] | C (Category C=SBP in SHRs>40 mmHg) | – | –
CC1(c2nnc(C(F)(F)F)o2)C(=O)Nc2nc(-c3nn(CCC(F)(F)C(F)(F)F)c4ccncc34)nc(N)c21 (centres unmarked) [Example 203, 4-amino-5-methyl-2-[1-(3,3,4,4,4-pentafluorobutyl)-1H-pyrazolo[3,4-d]pyridin-3-yl]-5-[5-(trifluoromethyl)-1,3,4-oxadiazol-2-yl)-5,7-dihydro-6H-pyrrolo[2,3-d]pyrimidin-6-one] | C (Category C=SBP in SHRs>40 mmHg) | – | –
